Among the data in patent US12478690B2, “Methods and systems for controlled release of drug cargo via ATP-responsive liposomes” (UNIVERSITY OF TENNESSEE RESEARCH FOUNDATION, priority 2021, dated 2025) are Diffusion coefficient values, retold here.

The series can be described thus: Diffusion ordered spectroscopy (DOSY) of the lipid switch before and after ATP. It is filed as physicochemical. The conditions noted are these: DMSO containing 8% D2O; substance alone. The method, then: Diffusion ordered spectroscopy (DOSY) was performed on 1a lipid switch molecules in de-DMSO containing 8% D2O before and after adding ATP. A decrease in diffusion coefficient was observed. In at least one experiment, the diffusion coefficient decreased from (1.0793±0.043)×10^−6 cm^2/s for 1a lipid switch molecule and (1.142±0.018)×10^−6 cm^2/s for ATP to (0.987±0.098)×10^−6 cm^2/s for 1a+ATP. The diffusion coefficient indicates an increase in the hydrodynamic radius per lipid molecule upon binding.

Regarding `Nc1ncnc2c1ncn2[C@@H]1O[C@H](COP(=O)(O)OP(=O)(O)OP(=O)(O)O)[C@@H](O)[C@H]1O` [ATP, adenosine triphosphate], the Diffusion coefficient is listed as 1.142±0.018 ×10^−6 cm^2/s.
